Active and inactive are the calls of the source. No cut-off for these calls is given here.
How the values were obtained:
[1] = biological target: T1, Alpha-2B adrenergic receptor (Homo sapiens) (UniProt P18089); assay: (§1) Agonistic potency at human adrenergic alpha-2B receptor expressed in CHO cells assessed as forskolin-induced cAMP accumulation; type: functional, cell-based
T1 sequence (whole entry): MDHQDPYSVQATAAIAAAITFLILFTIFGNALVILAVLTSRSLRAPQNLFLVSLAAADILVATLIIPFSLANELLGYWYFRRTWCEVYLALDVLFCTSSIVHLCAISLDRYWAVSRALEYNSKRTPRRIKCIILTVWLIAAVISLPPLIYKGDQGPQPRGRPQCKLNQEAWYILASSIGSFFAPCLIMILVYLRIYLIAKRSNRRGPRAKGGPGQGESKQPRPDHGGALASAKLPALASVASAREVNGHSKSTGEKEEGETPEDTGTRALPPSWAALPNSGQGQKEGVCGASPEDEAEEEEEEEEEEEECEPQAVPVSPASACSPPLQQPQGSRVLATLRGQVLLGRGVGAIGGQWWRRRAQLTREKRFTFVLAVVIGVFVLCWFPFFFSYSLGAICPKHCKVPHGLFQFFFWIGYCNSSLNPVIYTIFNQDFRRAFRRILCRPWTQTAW

[2] = biological target: T2, Alpha-2A adrenergic receptor (Homo sapiens) (UniProt P08913); assay: Intrinsic activity at human adrenergic alpha-2A receptor expressed in CHO cells assessed as forskolin-induced cAMP accumulation relative to (-)-noradrenaline; type: functional, cell-based
T2 sequence (whole entry): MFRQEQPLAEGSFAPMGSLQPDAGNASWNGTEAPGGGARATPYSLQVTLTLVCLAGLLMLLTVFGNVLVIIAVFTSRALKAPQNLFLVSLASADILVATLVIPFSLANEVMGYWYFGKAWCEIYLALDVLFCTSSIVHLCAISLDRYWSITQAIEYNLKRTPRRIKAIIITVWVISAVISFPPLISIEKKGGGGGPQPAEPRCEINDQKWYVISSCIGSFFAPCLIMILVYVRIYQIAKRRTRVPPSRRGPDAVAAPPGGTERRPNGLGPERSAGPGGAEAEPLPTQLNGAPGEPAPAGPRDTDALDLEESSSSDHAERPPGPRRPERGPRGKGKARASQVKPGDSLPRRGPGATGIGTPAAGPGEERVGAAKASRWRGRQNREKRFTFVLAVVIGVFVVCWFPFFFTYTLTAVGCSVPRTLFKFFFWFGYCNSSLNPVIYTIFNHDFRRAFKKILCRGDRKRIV

[3] = biological target: T1, Alpha-2B adrenergic receptor (Homo sapiens); assay: Intrinsic activity at human adrenergic alpha2B receptor expressed in CHO cells assessed as forskolin-induced cAMP accumulation relative to (-)- noradrenaline; type: functional, cell-based
[4] = biological target: T3, Alpha-2C adrenergic receptor (Homo sapiens) (UniProt P18825); assay: Intrinsic activity at human adrenergic Alpha-2C receptor expressed in CHO cells assessed as forskolin-induced cAMP accumulation relative to (-)- noradrenaline; type: functional, cell-based
T3 sequence (whole entry): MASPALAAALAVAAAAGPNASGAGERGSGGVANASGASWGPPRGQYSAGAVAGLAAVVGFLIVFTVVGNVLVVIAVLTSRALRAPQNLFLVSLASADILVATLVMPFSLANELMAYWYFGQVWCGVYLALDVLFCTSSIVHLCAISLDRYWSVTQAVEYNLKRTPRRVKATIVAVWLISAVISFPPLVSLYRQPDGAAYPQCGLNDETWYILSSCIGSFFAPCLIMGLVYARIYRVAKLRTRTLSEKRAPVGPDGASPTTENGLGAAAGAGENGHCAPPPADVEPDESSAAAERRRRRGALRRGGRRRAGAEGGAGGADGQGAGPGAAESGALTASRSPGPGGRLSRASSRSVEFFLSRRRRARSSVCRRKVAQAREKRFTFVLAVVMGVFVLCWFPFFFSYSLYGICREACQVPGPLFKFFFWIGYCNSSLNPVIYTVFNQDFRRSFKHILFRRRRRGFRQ

[5] = biological target: T4, Alpha-2A adrenergic receptor (Homo sapiens, UniProt P08913); assay: Displacement of [3H]RX 821002 from human adrenergic alpha2A receptor expressed in CHO cells; type: cell-based
T4 sequence (P08913 whole entry): T2 sequence (whole entry)

[6] = biological target: T5, Alpha-2B adrenergic receptor (Homo sapiens, UniProt P18089); assay: Displacement of [3H]RX 821002 from human adrenergic alpha-2B receptor expressed in CHO cells; type: cell-based
T5 sequence (P18089 whole entry): T1 sequence (whole entry)

[7] = biological target: T4, Alpha-2A adrenergic receptor; assay: Agonistic potency at human adrenergic alpha-2A receptor expressed in CHO cells assessed as forskolin-induced cAMP accumulation
[8] = biological target: T5, Alpha-2B adrenergic receptor; assay: as §1; type: functional, cell-based
[9] = biological target: T6, Alpha-2C adrenergic receptor (Homo sapiens, UniProt P18825); assay: Agonistic potency at human adrenergic Alpha-2C receptor expressed in CHO cells assessed as forskolin-induced cAMP accumulation; type: functional, cell-based
T6 sequence (P18825 whole entry): T3 sequence (whole entry)

[10] = biological target: T6, Alpha-2C adrenergic receptor; assay: biochemical
Description: (§2) Displacement of [3H]RX 821002 from human adrenergic Alpha-2C receptor expressed in CHO cells

[11] = biological target: T6, Alpha-2C adrenergic receptor; assay: Displacement of [3H]RX 821002 from human adrenergic alpha-2c receptor expressed in CHO cells in presence of GppNHp/Na; type: cell-based
[12] = biological target: T3, Alpha-2C adrenergic receptor (Homo sapiens); settings: CHO
Description: as §2

[13] = biological target: T1, Alpha-2B adrenergic receptor (Homo sapiens); assay: Antagonistic potency at human adrenergic alpha-2B receptor expressed in CHO cells assessed as forskolin-induced cAMP accumulation; type: functional, cell-based
[14] = biological target: T2, Alpha-2A adrenergic receptor (Homo sapiens); settings: CHO
Description: Antagonistic potency at human adrenergic alpha2A receptor expressed in CHO cells assessed as forskolin-induced cAMP accumulation

Compound: CC(Oc1ccccc1-c1cccc(F)c1)C1=NCCN1 (racemic)
- Activity [1]: inactive
- Intrinsic activity [2]: 0.58
- Intrinsic activity [3]: < 0.3
- Intrinsic activity [4]: 1.15

Compound: C[C@@H](Oc1ccccc1-c1ccccc1)C1=NCCN1
- Ki [5]: 0.186 µM
- Ki [6]: 1.26 µM
- EC50 [7]: 28.8 µM
- EC50 [8]: 100 µM
- EC50 ([9]; read-out: Log EC50 (converted)): 0.112 µM
- Intrinsic activity [2]: 0.4
- Intrinsic activity [3]: 0.4
- Intrinsic activity [4]: 0.7
- Ki [10]: 0.977 µM

Compound: Cc1cccc(C(C)c2c[nH]cn2)c1C (single isomer, unassigned) [DEXMEDETOMIDINE]
- Ki [11]: 0.0309 µM
- pKiH [12]: 10
- pKiL [12]: 8.26

Compound: CC(Oc1ccccc1-c1cccc(O)c1)C1=NCCN1 (racemic)
- Intrinsic activity [2]: < 0.3
- Intrinsic activity [3]: 0.5
- Intrinsic activity [4]: 1.15

Compound: CC(Oc1ccccc1-c1ccccc1)C1=NCCN1 (racemic)
- Intrinsic activity [2]: 0.7
- Intrinsic activity [3]: 0.5
- Intrinsic activity [4]: 0.8

Compound: C[C@H](Oc1ccccc1-c1cccc([N+](=O)[O-])c1)C1=NCCN1
- Ki [5]: 0.0724 µM
- Ki [6]: 1.58 µM
- EC50 ([9]; read-out: Log EC50 (converted)): 0.741 µM
- Intrinsic activity [4]: 0.45
- pKb [13]: 5.93
- pKb [14]: 7.35
- Ki [10]: 0.537 µM

Compound: C[C@@H](Oc1ccccc1-c1cccc([N+](=O)[O-])c1)C1=NCCN1
- Ki [5]: 0.0813 µM
- Ki [6]: 0.741 µM
- EC50 ([9]; read-out: EC50): 0.038 µM
- EC50 ([9]; read-out: Log EC50 (converted)): 0.01 µM
- Intrinsic activity [4]: 0.8
- Ki [11]: 0.363 µM
- pKb [13]: 6.07
- pKiH [12]: 8.21
- pKiL [12]: 6.42
- pKb [14]: 7.11
- Ki [10]: 0.257 µM

Compound: CC(Oc1ccccc1-c1cccc([N+](=O)[O-])c1)C1=NCCN1 (racemic)
- Activity [1]: inactive
- Intrinsic activity [2]: < 0.3
- Intrinsic activity [3]: < 0.3
- Intrinsic activity [4]: 0.6

Compound: C[C@H](Oc1ccccc1-c1ccccc1)C1=NCCN1
- Ki [5]: 0.0912 µM
- Ki [6]: 0.589 µM
- EC50 [7]: 0.0741 µM
- EC50 [8]: 0.692 µM
- EC50 ([9]; read-out: Log EC50 (converted)): 0.0186 µM
- Intrinsic activity [2]: 0.8
- Intrinsic activity [3]: 0.65
- Intrinsic activity [4]: 0.9
- Ki [10]: 0.302 µM

Compound: CC(Oc1ccccc1-c1cccnc1)C1=NCCN1 (racemic)
- Intrinsic activity [2]: 0.5
- Intrinsic activity [3]: 0.5
- Intrinsic activity [4]: 1
